These are literature values, as cited in patent US8974795B2, “Controlled release formulation based on hematin anhydride crystals for the induction of an innate immune reaction” (priority 2010, dated 2015).

Conditions in one data set: not given
One may read the pKa as the pH at which an ionisable group is half protonated. In the case of `C=CC1=C(C)c2cc3[n-]c(cc4[n-]c(cc5nc(cc1n2)C(C)=C5C=C)c(C)c4CCC(=O)O)c(CCC(=O)O)c3C.[Fe+2]` [heme], the pKa result is “about 4.5”.

Still in this data set, the particulars now being: Table 1, medium strong organic acids.
With `O=C(O)C(O)c1ccccc1` (racemic) [DL-Mandelic acid], the pKa is given as 3.85.
In the case of `O=C(O)Cc1ccccc1Cl` [2-Chlorophenylacetic acid], the pKa is given as 4.07.
For the molecule `O=C(O)CCc1ccccc1Cl` [3-(2-Chlorophenyl)propanoic acid], the pKa is recorded as 4.58.
As for `O=C(O)CCc1cccc(Cl)c1` [3-(3-Chlorophenyl)propanoic acid], the pKa was 4.59.
For `O=C(O)CCc1ccc(Cl)cc1` [3-(4-Chlorophenyl)propanoic acid], the pKa is 4.61.
Take `CC(Cl)CC(=O)O` (stereo not drawn) [3-Chlorobutanoic acid]: the pKa is on record as 4.05.
Turning to `O=C(O)Cc1cccc(Cl)c1` [3-Chlorophenylacetic acid], the pKa was 4.14.
Regarding `O=C(O)Cc1ccc(Cl)cc1` [4-Chlorophenylacetic acid], the pKa is 4.19.
Consider `O=C(O)C(c1ccccc1)c1ccccc1` [Diphenylacetic acid], for which the pKa is 3.94.
`Cc1cc(C)cc(C(=O)O)c1` [Mesitylenic acid]: the pKa was 4.32.
Take `CC(C(=O)O)c1ccccc1` (stereo not drawn) [α-Phenylpropanoic acid]: the pKa was 4.64.
